Measured values reported in patent publication US20260317324A1, “BIFUNCTIONAL COMPOUNDS FOR DEGRADING BRAF VIA UBIQUITIN PROTEOSOME PATHWAY” (Nurix Therapeutics, Inc., priority 2023, published 2026).

What was measured:
Assay type in all cases: cell-based
BRAF V600E = molecular target: T1, BRAF V600E (Homo sapiens, UniProt P15056, V600E); assay: BRAF HiBiT degradation assay, C-terminal HiBiT-tagged BRAF V600E A375 cells (clone 1F10), Nano-Glo HiBiT Lytic assay; conditions: for Dmax: A-375
T1 construct: endogenous C-terminal HiBiT fusion tag on BRAF V600E allele; endogenous in cells; host or cells: A375 clone 1F10 (CRISPR-Cas9 knock-in of the HiBiT tag; parental A375 from ATCC)
Outline: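 Endogenous BRAF V600E-HiBiT A375 (1F10), 10,000 cells/well, 24 h preculture; cpd 11-pt, 1 μM–0.01 nM half-log, n=2, 0.2% DMSO; HiBiT lytic detection 10 min RT; DC50 = fitted conc at Y=50; Obs. Dmax vs DMSO.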

BRAF G466V = molecular target: T2, BRAF G466V (Homo sapiens, UniProt P15056, G466V); assay: BRAF HiBiT degradation assay, C-terminal HiBiT-tagged BRAF G466V overexpressed in HCT-116 BRAF−/− cells (clone 8), Nano-Glo HiBiT Lytic assay
T2 construct: Horizon Discovery (HCT-116 BRAF−/− cells); host or cells: HCT-116 BRAF−/− cells, clone 8, lentiviral transduction
Outline: (§1)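 Luminescence from the lytic HiBiT reagent, read after 10 min at room temperature, measured tagged BRAF remaining in lentivirally transduced HCT-116 BRAF−/− cells. Compounds were tested from 1 μM to 0.01 nM in half-log steps at 0.2% DMSO. DC50 values were fitted at 50% remaining.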

BRAF G469A = molecular target: T3, BRAF G469A (Homo sapiens, UniProt P15056, G469A); assay: BRAF HiBiT degradation assay, C-terminal HiBiT-tagged BRAF G469A overexpressed in HCT-116 BRAF−/− cells (clone 34), Nano-Glo HiBiT Lytic assay
T3 construct: Horizon Discovery (HCT-116 BRAF−/− cells); host or cells: HCT-116 BRAF−/− cells, clone 34, lentiviral transduction
Outline: as §1

BRAF D594G = molecular target: T4, BRAF D594G (Homo sapiens, UniProt P15056, D594G); assay: BRAF HiBiT degradation assay, C-terminal HiBiT-tagged BRAF D594G overexpressed in HCT-116 BRAF−/− cells (clone 63), Nano-Glo HiBiT Lytic assay
T4 construct: Horizon Discovery (HCT-116 BRAF−/− cells); host or cells: HCT-116 BRAF−/− cells, clone 63, lentiviral transduction
Outline: as §1

[1] = A375 (BRAF V600E, Class 1), DC50 at 50% degradation
[2] = A375 (BRAF V600E, Class 1), observed Dmax, % protein degraded relative to DMSO control
[3] = BRAF G466V (Class 3), HCT-116 BRAF−/− cells, DC50 at 50% degradation
[4] = BRAF G466V (Class 3), HCT-116 BRAF−/− cells, observed Dmax relative to DMSO control
[5] = BRAF G469A (Class 2), HCT-116 BRAF−/− cells, DC50 at 50% degradation
[6] = BRAF G469A (Class 2), HCT-116 BRAF−/− cells, observed Dmax relative to DMSO control
[7] = BRAF D594G (Class 3), HCT-116 BRAF−/− cells, DC50 at 50% degradation
[8] = BRAF D594G (Class 3), HCT-116 BRAF−/− cells, observed Dmax relative to DMSO control
[9] = A375 (BRAF V600E), DC50 at 50%: fitted conc. at Y=50
[10] = A375 (BRAF V600E), percentage protein degraded at maximal compound effect relative to DMSO
[11] = BRAF G466V, DC50 at 50%: fitted conc. at Y=50
[12] = HCT-116, BRAF G466V, percentage protein degraded at maximal compound effect relative to DMSO
[13] = Class 2, BRAF G469A, DC50 at 50%: fitted conc. at Y=50
[14] = HCT-116, Class 2, BRAF G469A, percentage protein degraded at maximal compound effect relative to DMSO
[15] = BRAF D594G, DC50 at 50%: fitted conc. at Y=50
[16] = HCT-116, BRAF D594G, percentage protein degraded at maximal compound effect relative to DMSO

T3 sequence (P15056 whole entry G469A): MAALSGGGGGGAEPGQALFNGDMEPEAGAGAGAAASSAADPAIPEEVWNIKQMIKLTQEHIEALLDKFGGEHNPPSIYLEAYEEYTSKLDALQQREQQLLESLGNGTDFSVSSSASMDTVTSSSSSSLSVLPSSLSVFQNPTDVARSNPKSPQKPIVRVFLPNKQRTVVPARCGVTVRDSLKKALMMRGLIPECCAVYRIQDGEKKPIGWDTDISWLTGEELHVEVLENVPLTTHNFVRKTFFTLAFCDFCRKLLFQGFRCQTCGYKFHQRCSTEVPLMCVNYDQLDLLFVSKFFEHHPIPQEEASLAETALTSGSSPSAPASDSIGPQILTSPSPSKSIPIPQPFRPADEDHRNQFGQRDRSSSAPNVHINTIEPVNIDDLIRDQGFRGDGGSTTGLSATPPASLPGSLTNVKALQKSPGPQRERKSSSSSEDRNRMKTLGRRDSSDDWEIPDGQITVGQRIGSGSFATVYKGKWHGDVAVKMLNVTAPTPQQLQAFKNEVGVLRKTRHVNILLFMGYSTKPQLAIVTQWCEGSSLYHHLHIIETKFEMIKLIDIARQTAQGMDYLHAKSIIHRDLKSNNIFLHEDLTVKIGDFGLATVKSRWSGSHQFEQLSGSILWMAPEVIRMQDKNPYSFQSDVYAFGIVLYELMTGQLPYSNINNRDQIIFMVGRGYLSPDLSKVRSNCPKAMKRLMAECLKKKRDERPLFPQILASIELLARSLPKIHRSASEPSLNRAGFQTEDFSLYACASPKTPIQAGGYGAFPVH
T1 sequence (P15056 whole entry V600E, the tested form may be a part): as the sequence (P15056 whole entry G469A) above, with A469G, V600E counted along it
T2 sequence (P15056 whole entry G466V): as the sequence (P15056 whole entry G469A) above, with G466V, A469G counted along it
T4 sequence (P15056 whole entry D594G): as the sequence (P15056 whole entry G469A) above, with A469G, D594G counted along it

Row | DC50 (BRAF V600E; [1]) | Dmax (BRAF V600E; [2]) | DC50 (BRAF G466V; [3]) | Dmax (BRAF G466V; [4]) | DC50 (BRAF G469A; [5]) | Dmax (BRAF G469A; [6]) | DC50 (BRAF D594G; [7]) | Dmax (BRAF D594G; [8]) | DC50 (BRAF V600E; [9]) | Dmax (BRAF V600E; [10]) | DC50 (BRAF G466V; [11]) | Dmax (BRAF G466V; [12]) | DC50 (BRAF G469A; [13]) | Dmax (BRAF G469A; [14]) | DC50 (BRAF D594G; [15]) | Dmax (BRAF D594G; [16]) | Structure (SMILES)
1 | < 10 nM | > 70% | < 10 nM | > 70% | < 10 nM | 30 to 70% | < 10 nM | > 70% |  |  |  |  |  |  |  |  | CCN(C)S(=O)(=O)Nc1cc(Cl)cc(-c2cn(-c3ccc(N4CCN(CC5CCN(c6ccc(C7CCC(=O)NC7=O)cn6)CC5)CC4)cn3)nc2-c2ccncc2)c1F (racemic) [Compound 312, Rac-(3R)-3-(6-{4-[(4-{6-[4-(5-chloro-3-{[ethyl(methyl)sulfamoyl]amino}-2-fluorophenyl)-3-(pyridin-4-yl)-1H-pyrazol-1-yl]pyridin-3-yl}piperazin-1-yl)methyl]piperidin-1-yl}pyridin-3-yl)piperidine-2,6-dione]
2 |  |  |  |  |  |  |  |  | 10 to 50 nM | 30 to 70% | > 500 nM | 30 to 70% | > 500 nM | < 30% | > 500 nM | 30 to 70% | CCCS(=O)(=O)Nc1cccc(-c2nc(C(C)(C)C)sc2-c2ccnc(Nc3ccc4c(c3)CCN(CC3CCN(c5ccc6c(=O)n(C7CCC(=O)NC7=O)ccc6c5)CC3)C4)n2)c1F (racemic) [Compound 85, Rac-N-(3-{2-tert-butyl-5-[2-({2-[(1-{2-[(3R)-2,6-dioxopiperidin-3-yl]-1-oxo-1,2-dihydroisoquinolin-6-yl}piperidin-4-yl)methyl]-1,2,3,4-tetrahydroisoquinolin-6-yl}amino)pyrimidin-4-yl]-1,3-thiazol-4-yl}-2-fluorophenyl)propane-1-sulfonamide]
3 |  |  |  |  |  |  |  |  | < 10 nM | > 70% | > 500 nM | < 30% | > 500 nM | < 30% | > 500 nM | 30 to 70% | CCCS(=O)(=O)Nc1cccc(-c2nc(C(C)(C)C)sc2-c2ccnc(Nc3ccc(C4CCN(C(=O)C5CN(c6ccc(C7CCC(=O)NC7=O)cn6)C5)CC4)cc3)n2)c1F (racemic) [Compound 159, Rac-N-(3-{2-tert-butyl-5-[2-({4-[1-(1-{5-[(3R)-2,6-dioxopiperidin-3-yl]pyridin-2-yl}azetidine-3-carbonyl)piperidin-4-yl]phenyl}amino)pyrimidin-4-yl]-1,3-thiazol-4-yl}-2-fluorophenyl)propane-1-sulfonamide]
4 | < 10 nM | > 70% | 10 to 50 nM | 30 to 70% | < 10 nM | 30 to 70% | < 10 nM | 30 to 70% |  |  |  |  |  |  |  |  | O=C1CCN(c2ccc(N3CCC(CN4CCN(c5ccc(-n6cc(-c7cc(Cl)cc(NS(=O)(=O)N8CC(F)C8)c7F)c(-c7ccncc7)n6)c(F)c5)CC4)CC3)nc2)C(=O)N1 [Compound 369, N-[5-chloro-3-(1-{4-[4-({1-[5-(2,4-dioxo-1,3-diazinan-1-yl)pyridin-2-yl]piperidin-4-yl}methyl)piperazin-1-yl]-2-fluorophenyl}-3-(pyridin-4-yl)-1H-pyrazol-4-yl)-2-fluorophenyl]-3-fluoroazetidine-1-sulfonamide]
5 | < 10 nM | > 70% | < 10 nM | 30 to 70% | 10 to 50 nM | 30 to 70% | < 10 nM | 30 to 70% |  |  |  |  |  |  |  |  | O=C1CCN(c2ccc(N3CCC(CN4CCN(c5ccc(-n6cc(-c7cc(Cl)cc(NS(=O)(=O)N8CCCC8)c7F)c(-c7ccncc7)n6)nc5)CC4)CC3)cc2)C(=O)N1 [Compound 287, N-[5-chloro-3-(1-{5-[4-({1-[4-(2,4-dioxo-1,3-diazinan-1-yl)phenyl]piperidin-4-yl}methyl)piperazin-1-yl]pyridin-2-yl}-3-(pyridin-4-yl)-1H-pyrazol-4-yl)-2-fluorophenyl]pyrrolidine-1-sulfonamide]
6 | < 10 nM | > 70% | < 10 nM | > 70% | 10 to 50 nM | > 70% | < 10 nM | > 70% |  |  |  |  |  |  |  |  | C[C@@H]1CN(c2ccc(-n3cc(-c4cc(Cl)cc(NS(=O)(=O)N5CCCC5)c4F)c(-c4ccncc4)n3)c(F)c2)C[C@@H](C)N1CC1CCN(c2ccc(C3CCC(=O)NC3=O)cn2)CC1 (mixture of isomers) [Compound 382, N-(5-chloro-3-(1-(4-((3R,5R)-4-((1-(5-((RS)-2,6-dioxopiperidin-3-yl)pyridin-2-yl)piperidin-4-yl)methyl)-3,5-dimethylpiperazin-1-yl)-2-fluorophenyl)-3-(pyridin-4-yl)-1H-pyrazol-4-yl)-2-fluorophenyl)pyrrolidine-1-sulfonamide]
7 |  |  |  |  |  |  |  |  | < 10 nM | > 70% | > 500 nM | < 30% | > 500 nM | < 30% | > 500 nM | < 30% | CCCS(=O)(=O)Nc1cccc(-c2nc(C(C)(C)C)sc2-c2ccnc(Nc3ccc(N4CCN(C(=O)CC5(O)CCN(c6ccc(NC7CCC(=O)NC7=O)cc6F)CC5)CC4)c(F)c3)n2)c1F (racemic) [Compound 52, Rac-N-{3-[2-tert-butyl-5-(2-{[4-(4-{2-[1-(4-{[(3R)-2,6-dioxopiperidin-3-yl]amino}-2-fluorophenyl)-4-hydroxypiperidin-4-yl]acetyl}piperazin-1-yl)-3-fluorophenyl]amino}pyrimidin-4-yl)-1,3-thiazol-4-yl]-2-fluorophenyl}propane-1-sulfonamide]
8 | < 10 nM | > 70% | < 10 nM | > 70% | < 10 nM | > 70% | < 10 nM | > 70% |  |  |  |  |  |  |  |  | O=C1CC[C@H](c2ccc(N3CCC(CN4CCN(c5ccc(-n6cc(-c7cc(Cl)cc(NS(=O)(=O)N8CC[C@@H](F)C8)c7F)c(-c7ccncc7)n6)nc5)CC4)CC3)cc2)C(=O)N1 [Compound 294, (3R)—N-{5-chloro-3-[1-(5-{4-[(1-{4-[(3R)-2,6-dioxopiperidin-3-yl]phenyl}piperidin-4-yl)methyl]piperazin-1-yl}pyridin-2-yl)-3-(pyridin-4-yl)-1H-pyrazol-4-yl]-2-fluorophenyl}-3-fluoropyrrolidine-1-sulfonamide]
9 |  |  |  |  |  |  |  |  | < 10 nM | 30 to 70% | > 500 nM | < 30% | > 500 nM | < 30% | > 500 nM | < 30% | CCCS(=O)(=O)Nc1cccc(-c2nc(C(C)(C)C)sc2-c2ccnc(Nc3cnn(C4CCN(C(=O)[C@H]5CC[C@H](Oc6ccc(C7CCC(=O)NC7=O)cc6)CC5)CC4)c3)n2)c1F (mixture of isomers) [Compound 110, N-[3-(2-tert-butyl-5-{2-[(1-{1-[(1r,4r)-4-{4-[(3RS)-2,6-dioxopiperidin-3-yl]phenoxy}cyclohexanecarbonyl]piperidin-4-yl}-1H-pyrazol-4-yl)amino]pyrimidin-4-yl}-1,3-thiazol-4-yl)-2-fluorophenyl]propane-1-sulfonamide]
10 | < 10 nM | > 70% | < 10 nM | > 70% | 10 to 50 nM | > 70% | < 10 nM | > 70% |  |  |  |  |  |  |  |  | O=C1CCC(c2ccc(N3CCC(CN4CCN(c5ccc(-n6cc(-c7cc(Cl)cc(NS(=O)(=O)C8CCCC8)c7F)c(-c7ccncc7)n6)cc5)CC4)CC3)nc2)C(=O)N1 (racemic) [Compound 373, Rac-N-{5-chloro-3-[1-(4-{4-[(1-{5-[(3R)-2,6-dioxopiperidin-3-yl]pyridin-2-yl}piperidin-4-yl)methyl]piperazin-1-yl}phenyl)-3-(pyridin-4-yl)-1H-pyrazol-4-yl]-2-fluorophenyl}cyclopentanesulfonamide]
